Test results from article PMC12250893, “Systematic Characterization of In Vitro and In Vivo Metabolic Pathways and Identification of Novel Biomarkers of 26 Synthetic Cannabinoids” (Molecules, 2025).

Assay: Human liver microsomal incubation (in vitro metabolic model)
Details: HLM, 37 °C 1 h, then UDPGA 30 min; peak area of parent in experimental group vs degradation control group
Method: Each of the 26 SCs was configured to 1 mg/mL with acetonitrile. The HLMs, NADPH regeneration solution A, regeneration solution B, and UDPGA solution were thawed at 4 °C. An icebox was prepared, and all additional steps were performed on ice. For this, 10 µL of NADPH regeneration solution A, 2 µL of regeneration solution B, 2 µL of SCs standard, and 10 µL of mixed human liver microsomes were added to 176 µL of 0.1 mol/L phosphate buffer. The mixture was mixed thoroughly and incubated at 37 °C for 1 h. Subsequently, 20 µL of UDPGA solution was added and mixed well, followed by an additional incubation for 30 min. The reaction was stopped by adding 200 µL of ice-cold acetonitrile. Additionally, the negative control group and the degradation control group were set up following the same procedure. […] The unadded components were supplemented with an equal amount of phosphate buffer. All samples were centrifuged at a high speed of 13,500 r for 10 min after reaction termination. The supernatant was collected and subsequently passed through a membrane filter (0.45 μm) prior to sampling.
The samples were separated and analyzed using a UHPLC-Q-Exactive Orbitrap MS system (Thermo Fisher Scientific, Waltham, MA, USA), which comprised a Thermo-Scientific™ Q-Exactive™(Thermo Fisher Scientific, Waltham, MA, USA) quadrupole electrostatic field orbitrap mass spectrometer coupled to a Vanquish ultrahigh-performance liquid chromatography (UHPLC) system (Thermo Fisher Scientific, Waltham, MA, USA) with a heated electrospray ionization HESI source in the positive ionization mode. The samples were separated on an ACQUITY UPLC BEH C18 Column (100 × 2.1 mm, 1.7 μm) with the column temperature maintained at 30 °C. The chromatographic separation was achieved using a gradient elution program with mobile phase A consisting of 0.1% formic acid in water and mobile phase B containing 0.1% formic acid in acetonitrile. The gradient profile was programmed as follows: Initial conditions were maintained at 5% B from 0 to 1 min, followed by a linear increase to 95% B from 1 to 11 min; the 95% B composition was held from 11 to 15.5 min, then decreased back to 5% B from 15.5 to 16 min, and finally maintained at 5% B from 16 to 18 min. The flow rate was set at 0.3 mL/min, and the injection volume was 10 μL for all analyses.
The following HESI source conditions were adopted: Acquisition mode was set to positive ion mode; the capillary temperature was maintained at 325 °C, the auxiliary gas heater temperature was set to 350 °C, and the spray voltage was applied at 3.7 kV. The mass spectrometry analysis was carried out in full-scan (FS) mode to trigger data-dependent acquisition in tandem mass spectrometry (FS-ddMS^2) mode. The FS data acquisition was performed using the following parameters: a resolution of 60,000, an automatic gain control (AGC) target of 1 × 10^6, a scan range of m/z 66.7–1000, and a maximum injection time (IT) of 250 ms. The ddMS^2 data acquisition was performed using the following parameters: a resolution of 30,000; an automatic gain control (AGC) target of 1 × 10^5; normalized collision energies (NCEs) of 20, 40, and 70 eV; and a maximum injection time (IT) of 50 ms.
Data acquisition was executed utilizing Xcalibur 4.3 software (Thermo Fisher Scientific, Waltham, MA, USA). The subsequent analysis of the acquired data was conducted using Thermo Fisher Scientific […] 3.2 software (Thermo Fisher Scientific, Waltham, MA, USA). The workflow’s nodes employed specific parameters: a mass tolerance of 5 ppm, a signal-to-noise threshold of 3, a minimum peak intensity of 1 × 10^5, a maximum peak width of 0.8 min, and a minimum of 3 scans per peak.

First: CCOC(=O)C(NC(=O)c1nn(CCCCCF)c2ccccc12)C(C)C (centres unmarked) [5F-EMB-PICA]
Second: CCCCCCn1nc(C(=O)NC(C(N)=O)C(C)(C)C)c2ccccc21 (centres unmarked) [ADB-HEXINACA]
The “Conversion Rate” value of the first is higher: 80.6% for the first, 24.8% for the second.

First: C=CCCCn1nc(C(=O)NC(C(N)=O)C(C)C)c2ccccc21 (centres unmarked) [AB-4en-PINACA]
Second: C=CCCCn1nc(C(=O)NC(C(N)=O)C(C)(C)C)c2ccccc21 (centres unmarked) [ADB-4en-PINACA]
The “Conversion Rate” value of the first is higher: 98.7% for the first, 18.2% for the second.

Compared with `CN1CCCCC1Cn1cc(C(=O)C2C(C)(C)C2(C)C)c2ccccc21` (centres unmarked) [AB-005], `C=CCCn1nc(C(=O)NC(C(N)=O)C(C)(C)C)c2ccccc21` (centres unmarked) [ADB-3en-BUTINACA] is higher in “Conversion Rate” value: 60.9% for the first, 98.7% for the second.

First: CC(C)C(NC(=O)c1nn(Cc2ccc(F)cc2)c2ccccc12)C(N)=O (centres unmarked) [AB-FUBINACA]
Second: CCCCCn1c(C(=O)c2cccc3ccccc23)nc2ccccc21 [BIM-018]
The “Conversion Rate” value of the first is lower: 74.6% for the first, 93.7% for the second.

First: CCCCCn1cc(C(=O)NC(C(N)=O)C(C)(C)C)c2cccnc21 (centres unmarked) [ADB-P7AICA]
Second: O=C(c1cccc2ccccc12)c1nc2ccccc2n1CCCCCF [BIM-2201]
The “Conversion Rate” value of the first is lower: 42.9% for the first, 90.2% for the second.

Assay: Metabolite identification, HLM incubation and rat model combined (UHPLC-Q-Exactive Orbitrap MS)
Set-up: species or system human; rat
Details: characteristic / defining metabolites by the screening criteria
Method: Sprague-Dawley male rats (200 ± 20 g) were obtained from SPF (Beijing) Biotechnology Co., Ltd. (Beijing, China). The animals were housed under controlled environmental conditions: Temperature was maintained at 20–25 °C, humidity at 50 ± 10%, and a 12/12 h light/dark cycle was applied. They had ad libitum access to standard laboratory chow and filtered water. A two-week acclimatization period was provided before the experiments began. The 26 SC standards were prepared in normal saline at concentrations of 0.5 mg/mL, 0.1 mg/mL, and 0.05 mg/mL. Each rat was weighed before administration, and the injection dose was adjusted based on body weight. The dosing volume for each rat was maintained at approximately 200 µL.
162 Sprague-Dawley (SD) rats were randomly divided into 27 groups, with six rats in each group. The control group received an injection of normal saline, while the remaining groups were injected with 26 different types of SCs. The dosage administered was determined based on pre-experimental results, specifically selecting the dose that produced the highest level of metabolites in the blood samples collected 1 h after tail vein injection at concentrations of 0.5 mg/kg, 0.1 mg/kg, and 0.05 mg/kg, as shown in Table 6. Subsequently, tail vein administration was conducted at the specified dosage. The orbital venous blood was taken from the outer canthus of the rat with capillaries at 15 min and 1 h. Feces were collected after the blood. The rats were then sacrificed, and their brains and livers were dissected. Samples were immediately frozen in liquid nitrogen and stored at −80 °C until analysis.
For blood samples, 0.5 mL of each sample was mixed with 1.0 mL of acetonitrile. For brain samples, 0.2 g of tissue was combined with 0.5 mL of acetonitrile. For liver samples, 0.5 g of tissue was mixed with 0.5 mL of acetonitrile. For feces samples, 0.2 g of sample was combined with 1 mL of acetonitrile-water (3:1) for grinding and homogenization. Each mixture was sonicated for 40 min, allowed to precipitate at 4 °C for 30 min, and then centrifuged at 13,500 rpm for 10 min. The supernatant was filtered using a syringe filter (0.45 μm) for further testing.

For `CCOC(=O)C(NC(=O)c1nn(CCCCCF)c2ccccc12)C(C)C` (centres unmarked) [5F-EMB-PICA], the “Characteristic Metabolite” value was “Ester hydrolysis, amide hydrolysis, and oxidative defluorination metabolite”.
For `C=CCCCn1nc(C(=O)NC(C(N)=O)C(C)C)c2ccccc21` (centres unmarked) [AB-4en-PINACA], the “Characteristic Metabolite” value was “Deamination, hydration, and deamidation metabolites”.
In the case of `CN1CCCCC1Cn1cc(C(=O)C2C(C)(C)C2(C)C)c2ccccc21` (centres unmarked) [AB-005], the “Characteristic Metabolite” value is reported as “Hydroxylation, de-N-alkyl side chain, dehydrogenation, and dihydroxylation metabolites”.
In the case of `CC(C)C(NC(=O)c1nn(Cc2ccc(F)cc2)c2ccccc12)C(N)=O` (centres unmarked) [AB-FUBINACA], the “Characteristic Metabolite” value is reported as “Hydrolysis, hydroxylation, and deamination metabolites”.
For `C=CCCn1nc(C(=O)NC(C(N)=O)C(C)(C)C)c2ccccc21` (centres unmarked) [ADB-3en-BUTINACA], the “Characteristic Metabolite” value was “Dihydrodiol, deamination, deamination, and hydroxylation metabolites”.
In the case of `C=CCCCn1nc(C(=O)NC(C(N)=O)C(C)(C)C)c2ccccc21` (centres unmarked) [ADB-4en-PINACA], the “Characteristic Metabolite” value is reported as “Deamination, hydration, dihydrodiol, and deamination metabolites”.
For `CCCCCCn1nc(C(=O)NC(C(N)=O)C(C)(C)C)c2ccccc21` (centres unmarked) [ADB-HEXINACA], the “Characteristic Metabolite” value was “Deamination, deamidation, amide hydrolysis, and hydroxylation metabolites”.
With `CCCCCn1cc(C(=O)NC(C(N)=O)C(C)(C)C)c2cccnc21` (centres unmarked) [ADB-P7AICA] the “Characteristic Metabolite” value was “Hydroxylation, deamination, and dehydrogenation metabolites”.
In the case of `CCCCCn1c(C(=O)c2cccc3ccccc23)nc2ccccc21` [BIM-018], the “Characteristic Metabolite” value is reported as “Ketogenic, hydroxylated, and dehydrogenated metabolites”.
For `O=C(c1cccc2ccccc12)c1nc2ccccc2n1CCCCCF` [BIM-2201], the “Characteristic Metabolite” value was “Oxidative defluorination, dihydrodiol, and hydroxylated metabolite”.

Same assay, conditions: in vitro (HLM) and in vivo (rat) models together

Compared with `CCOC(=O)C(NC(=O)c1nn(CCCCCF)c2ccccc12)C(C)C` (centres unmarked) [5F-EMB-PICA], `CCCCCCn1nc(C(=O)NC(C(N)=O)C(C)(C)C)c2ccccc21` (centres unmarked) [ADB-HEXINACA] is higher in “Number of Metabolites” value: 19 for the first, 31 for the second.

Compared with `C=CCCCn1nc(C(=O)NC(C(N)=O)C(C)C)c2ccccc21` (centres unmarked) [AB-4en-PINACA], `C=CCCCn1nc(C(=O)NC(C(N)=O)C(C)(C)C)c2ccccc21` (centres unmarked) [ADB-4en-PINACA] is higher in “Number of Metabolites” value: 18 for the first, 30 for the second.

First: CN1CCCCC1Cn1cc(C(=O)C2C(C)(C)C2(C)C)c2ccccc21 (centres unmarked) [AB-005]
Second: C=CCCn1nc(C(=O)NC(C(N)=O)C(C)(C)C)c2ccccc21 (centres unmarked) [ADB-3en-BUTINACA]
The “Number of Metabolites” value of the first is lower: 17 for the first, 22 for the second.

Compared with `CC(C)C(NC(=O)c1nn(Cc2ccc(F)cc2)c2ccccc12)C(N)=O` (centres unmarked) [AB-FUBINACA], `CCCCCn1c(C(=O)c2cccc3ccccc23)nc2ccccc21` [BIM-018] is higher in “Number of Metabolites” value: 19 for the first, 27 for the second.

Going from `CCCCCn1cc(C(=O)NC(C(N)=O)C(C)(C)C)c2cccnc21` (centres unmarked) [ADB-P7AICA] to `O=C(c1cccc2ccccc12)c1nc2ccccc2n1CCCCCF` [BIM-2201], the “Number of Metabolites” value falls from 40 to 29.

Compared with `CCOC(=O)C(NC(=O)c1nn(CCCCCF)c2ccccc12)C(C)C` (centres unmarked) [5F-EMB-PICA], `CCCCCCn1nc(C(=O)NC(C(N)=O)C(C)(C)C)c2ccccc21` (centres unmarked) [ADB-HEXINACA] is higher in “Number of Phase I Metabolites” value: 9 for the first, 24 for the second.

Going from `C=CCCCn1nc(C(=O)NC(C(N)=O)C(C)C)c2ccccc21` (centres unmarked) [AB-4en-PINACA] to `C=CCCCn1nc(C(=O)NC(C(N)=O)C(C)(C)C)c2ccccc21` (centres unmarked) [ADB-4en-PINACA], the “Number of Phase I Metabolites” value rises from 17 to 25.

Compared with `CN1CCCCC1Cn1cc(C(=O)C2C(C)(C)C2(C)C)c2ccccc21` (centres unmarked) [AB-005], `C=CCCn1nc(C(=O)NC(C(N)=O)C(C)(C)C)c2ccccc21` (centres unmarked) [ADB-3en-BUTINACA] is higher in “Number of Phase I Metabolites” value: 12 for the first, 18 for the second.

Compared with `CC(C)C(NC(=O)c1nn(Cc2ccc(F)cc2)c2ccccc12)C(N)=O` (centres unmarked) [AB-FUBINACA], `CCCCCn1c(C(=O)c2cccc3ccccc23)nc2ccccc21` [BIM-018] is lower in “Number of Phase I Metabolites” value: 15 for the first, 13 for the second.

Compared with `CCCCCn1cc(C(=O)NC(C(N)=O)C(C)(C)C)c2cccnc21` (centres unmarked) [ADB-P7AICA], `O=C(c1cccc2ccccc12)c1nc2ccccc2n1CCCCCF` [BIM-2201] is lower in “Number of Phase I Metabolites” value: 28 for the first, 17 for the second.

First: CCOC(=O)C(NC(=O)c1nn(CCCCCF)c2ccccc12)C(C)C (centres unmarked) [5F-EMB-PICA]
Second: CCCCCCn1nc(C(=O)NC(C(N)=O)C(C)(C)C)c2ccccc21 (centres unmarked) [ADB-HEXINACA]
The “Number of Phase II Metabolites” value of the first is higher: 10 for the first, 7 for the second.

Going from `C=CCCCn1nc(C(=O)NC(C(N)=O)C(C)C)c2ccccc21` (centres unmarked) [AB-4en-PINACA] to `C=CCCCn1nc(C(=O)NC(C(N)=O)C(C)(C)C)c2ccccc21` (centres unmarked) [ADB-4en-PINACA], the “Number of Phase II Metabolites” value rises from 1 to 5.

Compared with `CN1CCCCC1Cn1cc(C(=O)C2C(C)(C)C2(C)C)c2ccccc21` (centres unmarked) [AB-005], `C=CCCn1nc(C(=O)NC(C(N)=O)C(C)(C)C)c2ccccc21` (centres unmarked) [ADB-3en-BUTINACA] is lower in “Number of Phase II Metabolites” value: 5 for the first, 4 for the second.

Compared with `CC(C)C(NC(=O)c1nn(Cc2ccc(F)cc2)c2ccccc12)C(N)=O` (centres unmarked) [AB-FUBINACA], `CCCCCn1c(C(=O)c2cccc3ccccc23)nc2ccccc21` [BIM-018] is higher in “Number of Phase II Metabolites” value: 4 for the first, 14 for the second.

`CCCCCn1cc(C(=O)NC(C(N)=O)C(C)(C)C)c2cccnc21` (centres unmarked) [ADB-P7AICA] and `O=C(c1cccc2ccccc12)c1nc2ccccc2n1CCCCCF` [BIM-2201] are the same in “Number of Phase II Metabolites” value: 12 for the first, 12 for the second.
